# “Also recorded” adds a separate entry of the source.
# Tests used:
# C57BL/6N mice = assay: Chronic social defeat stress model, sucrose preference test; format: in vivo, mouse; settings: stressed mice; for sucrose preference deficit, treatments during stress protocol: dose not given at the place
# From the text: This task, designed to measure hedonic behaviors in mice is based on the palatable nature of sucrose observed in a number of mouse strains. On the first day of the test, sucrose-naive mice were placed in individual cages at 11 am and left there with water and food for habituation period. At 5 pm one water bottle was replaced with two bottles: one containing water and another 0.8% sucrose solution. Three hours later (8 pm) the bottles were weighed to measure liquid consumption and were replaced in cages until morning. The measures of an overnight consumption were then carried out for additional day to evaluate sucrose preference. Mice were not water deprived at any moment, in order to measure spontaneous sucrose preference and exclude any potential emotional confounds induced by stress of water deprivation. The sucrose preference was expressed as the percent of sucrose solution consumed with respect to total liquid consumption.
# Social defeat stress procedure was a modified version of the protocol previously described (Berton, McClung et al. 2006). C57BL/6N mice were defeated chronically for 10 consecutive days. Every day they were exposed to the physical contact with an unfamiliar CD1 aggressor in its home cage for maximal interaction time of 5 minutes. After each session of physical stress, C57BL/6N and CD1 mice were separated by a perforated wall and maintained in sensory contact for 24 h. After the last session of stress, mice were transferred into new cages and housed separately throughout the behavioral tests period. C57BL/6N control mice, similarly to the experimental animals, were housed two per cage separated by a metal perforated wall. Every day, they were exposed to the physical contact for 5 minutes.
# For behavioral analysis, 9CDHROL and 9CDHBC were dissolved in ethanol, and then mixed with sunflower oil, so that the final solution contained 3% ethanol. Vehicle treatments consisted of 3% ethanol solution in sunflower oil. For memory studies treatments with 9CDHRA were administered by intraperitoneal injections at volume/weight ratio 3 ml/kg at 7 am and 7 hours before the beginning of testing. For tests with animal model of chronic social defeat, different treatments were administered […] day of stress protocol immediately after the stress session starting from day 1 of the stress protocol.
# This task, designed to measure hedonic behavior in mice (Moreau, 1997), is based on the palatable nature of sucrose observed in a number of mouse strains. On the first day of the test, sucrose-naive mice were placed in individual cages at 11 am and left there with water and food for habituation period. At 5 pm one water bottle was replaced with two bottles: one containing water and another 0.8% sucrose solution. Three hours later (8 pm) the bottles were weighed to measure liquid consumption and were replaced in cages until morning. The measures of an overnight consumption were then carried out for additional day to evaluate sucrose preference. Mice were not water deprived at any moment, in order to measure spontaneous sucrose preference and exclude any potential emotional confounds induced by stress of water deprivation. The sucrose preference was expressed as the percent of sucrose solution consumed with respect to total liquid consumption.
# Social defeat stress procedure was a modified version of the protocol previously described (Berton et al. 2006). C57BL/6N mice were defeated chronically for 10 consecutive days. […]
# [1] = tested on: Rbp1−/−, Rxrγ−/− and WT mice; assay: Delayed non-match to place (DNMTP) working memory task in the T-maze; format: in vivo, mouse
# Method: Behaviorally naïve groups of mice were tested in the DNMTP (delayed non-match to place) procedure in the T-maze according to a protocol previously described (Wietrzych et al., 2005), with modifications to facilitate pharmacological tests (Wietrzych-Schindler et al., 2011). Spontaneous alternation was evaluated in the Ymaze apparatus according to protocol described in detail below.
# Specifically, in the present protocol, animals were first trained for 10 consecutive days with minimal inter-trial intervals (ITI) of about 15 sec, which was necessary to attain the criterion of 90% or more of correct choices during […] consecutive days (days 9-10). After this period ITI was increased semi-randomly by blocks of 3-6 min during 5 consecutive days (days 11-15 indicated) to determine “test ITI” for each animal, which was defined as the shortest ITI at which mice perform at chance level. From day 16 mice were tested using corresponding “test ITI” delays following vehicle injection on the day 16 (to test for the effect of vehicle alone) and following 9CDHROL (40 mg/kg) injection on day 17. Three mice were excluded from testing since their latency to choose the arm during the retention phase exceeded 3 min in more than one trial/day on three consecutive days (exclusion criterion). On the day 18 mice were again injected (IP) with 9CDHROL (40 mg/kg) and 9 hours later sacrificed for chemical analyses. Mice which received vehicle injections on three consecutive days were used as vehicle-treated controls for analyses of 9CDHROL metabolism. An additional group of 3 naïve mice was also injected with 9CDHROL (40 mg/kg) to test for 9CDHROL metabolism following acute treatment.
# In this variant, animals were first trained for 9 consecutive days of with minimal inter-trial intervals (ITI) of about 15 sec, which was necessary to attain the criterion of 90% or more of correct choices during three consecutive days (days 7-9). After this period ITI was increased semi-randomly to 180, 360, 720 and for some WT mice also 1080 seconds so that each animal was tested 6 times with each interval during four consecutive days (days 10-13 indicated). From day 13 mice were tested only twice per week beginning with training session on day one (with minimal, 15 sec ITIs) and testing pharmacological treatments on the second day. Only one pharmacological treatment was tested every 7 days. To test pro-mnemonic activities of UVI2108 and (R)-9CDHRA inventors used a minimal ITI, at which mice performed at chance level (50%) and which was 6 min for the Rbp1−/− or Rxrγ−/− groups and 12 min for most WT mice with exception of two mice tested at 18 min. Four mice (two wild types and one of each knockout line), were excluded from testing since their latency to choose the arm during the retention phase exceeded 3 min in more than one trial/day on three consecutive days (exclusion criterion).
# For behavioral analysis, 9CDHROL and 9CDHBC were dissolved in ethanol, and then mixed with sunflower oil, so that the final solution contained 3% ethanol. Vehicle treatments consisted of 3% ethanol solution in sunflower oil. For memory studies treatments with 9CDHRA were administered by intraperitoneal injections at volume/weight ratio 3 ml/kg at 7 am and 7 hours before the beginning of testing. For tests with animal model of chronic social defeat, different treatments were administered by intraperitoneal injections at volume/weight ratio 3 ml/kg at 10 mg/kg for each substance between 5-6 pm every second day of stress protocol immediately after the stress session starting from day 1 of the stress protocol.
# Vehicle treatments consisted of 3% ethanol and 3% DMSO solution in sunflower oil. Treatments were administered by intraperitoneal injections at volume/weight ratio 3 ml/kg between 8-10 am and 5-6 h before the test as previously validated (Wietrzych-Schindler M, 2011).
# [2] = Rbp1−/− mice, ITI of 6 min, acute treatment, (R)-9CDHRA 1 or 2 mg/kg
compound,measurement,setting,value
"CC(C=CC1=C(C)CCCC1(C)C)=CC=CC(C)CC(=O)O (stereo not drawn) [9CDHRA, 9-cis-13,14-dihydroretinoic acid]",sucrose preference (anhedonia),C57BL/6N mice; 1 mg/kg,Anhedonia was abolished
same,"sucrose preference deficit, treatments during stress protocol",C57BL/6N mice,prevented
"CC1=C(/C=C/C(C)=C\C=C\C(C)CCO)C(C)(C)CCC1 (stereo not drawn) [9CDHROL, 9-cis-13,14-dihydroretinol]",working memory performance in DNMTP task,"[1]; wild type C57BL6N male mice, 40 mg/kg, 7-9 h after treatment, mean ITI of 13 min, 40 mg/kg",improved working memory performance; also recorded: significantly enhanced memory performance
same,sucrose preference (anhedonia),"C57BL/6N mice; 10 mg/kg i.p. every second day of stress protocol, 10 mg/kg",prevented; also recorded: Anhedonia was abolished
"CC1=C(/C=C/C(C)=C\C=C\[C@H](C)CC(=O)O)C(C)(C)CCC1 [(R)-9CDHRA, (9Z,13R)-13,14-Dihydroretinoic Acid]",working memory performance in DNMTP task,[1]; [2],reversed working memory deficits; also recorded: improved memory performance
same,correct choices in DNMTP task,"[1]; Rxrγ−/− mice, ITI 6 min",57±7 % of correct choices
same,correct choices in DNMTP task,"[1]; WT mice, 2 mg/kg, ITI of 12 or 18 min",about 70 % of correct choices
same,working memory performance in DNMTP task,"[1]; WT mice, ITI of 12 or 18 min",showed pro-mnemonic activity; also recorded: raised performance
"CC1(C)CCC(C)(C)c2cc(C3(c4ccc(C(=O)O)cc4)OCCO3)ccc21 [UVI2108, reference compound]",working memory performance in DNMTP task,[1]; [2],reversed memory deficits
same,working memory performance in DNMTP task,"[1]; Rxrγ−/− mice, ITI of 6 min",remained ineffective
same,"sucrose preference deficit, treatments during stress protocol",C57BL/6N mice,prevented; also recorded: activities similar to 9CDHRA

# Reference: patent publication US12029715B2, “Precursor compounds for providing retinoids of the vitamin A5 pathway and uses thereof” (UNIVERSITY OF DEBRECEN, priority 2015, dated 2024)
